Test results reported in patent publication US20250064846A1, “TREATMENT AND PREVENTION OF TRIGEMINAL NEURALGIA” (THE JOHNS HOPKINS UNIVERSITY, priority 2022, published 2025).

Key:
NRF2 target genes [1] = assay: RNA-sequencing of primary human dermal fibroblasts; assay type: cell-based; conditions: 48 hours, 0.25 μM JQ-1
Protocol: RNA-sequencing RNA sequencing was performed as previously described (See Shin, J. Y. et al. Sci Transl Med 11, eaaw0790 (2019)). To assess the transcriptional signature of JQ-1, total RNA was isolated from three independent human fibroblast lines after 48 hours of treatment with DMSO or 0.25 μM JQ-1 using TRizol and RNeasy isolation columns (Qiagen) as per the manufacturer's instructions. DNA was digested with DNase treatment. All samples had RNA integrity numbers 9.60 or higher as measured with an Agilent 2100 Bioanalyzer. mRNA was enriched by poly-A selection, prepped using an Illumina TruSeq mRNA sample preparation kit, and sequenced by Illumina HiSeq 2000.
Differential Gene Expression and Pathway Enrichment Analyses Differential gene expression analysis was performed using BioJupies 126.

NRF2 target genes [2] = conditions: corneal fibroblasts and monocytes; cited from earlier work
NRF2 target genes [3] = assay: Upregulation of canonical NRF2 target genes (no method given); assay type: cell-based

Row | Structure (SMILES) | expression of canonical NRF2 target genes (NQO1, FTL, PRDX1, TXN, EGR1) (NRF2 target genes [1]) | rank of the NRF2 pathway in gene ontology and genetic network analyses (NRF2 target genes [1]) | upregulation of NQO1 and HMOX1 (NRF2 target genes [2]) | induction of the canonical NRF2 target Nqo1 (NRF2 target genes [3])
1 | Cc1sc2c(c1C)C(c1ccc(Cl)cc1)=N[C@@H](CC(=O)OC(C)(C)C)c1nnc(C)n1-2 [JQ-1, (S)-tert-butyl 2-(4-(4-chlorophenyl)-2,3,9-trimethyl-6H-thieno[3,2-f][1,2,4]triazolo[4,3-a][1,4]diazepin-6-yl)acetate] | upregulated a number of canonical NRF2 target genes | second most upregulated pathway | upregulates NQO1 and HMOX1 | –
2 | C=C1C[C@@H]2[C@H](CC[C@]3(C)C(=O)CC[C@@H]23)[C@@]2(C)C=CC(=O)C=C12 [exemestane, 6-methylenandrosta-1,4-diene-3,17-dione] | – | – | – | upregulated the canonical NRF2 target Ngo1
